pIC50: −log10 of the molar value.
What was measured:
[1] = target: T1, Serine/threonine-protein kinase Nek3 (Homo sapiens) (UniProt P51956); assay: Selectivity interaction (KinomeScan (DiscoverX)) EUB0000229b NEK3; conditions: at 10 µM
T1 sequence (whole entry): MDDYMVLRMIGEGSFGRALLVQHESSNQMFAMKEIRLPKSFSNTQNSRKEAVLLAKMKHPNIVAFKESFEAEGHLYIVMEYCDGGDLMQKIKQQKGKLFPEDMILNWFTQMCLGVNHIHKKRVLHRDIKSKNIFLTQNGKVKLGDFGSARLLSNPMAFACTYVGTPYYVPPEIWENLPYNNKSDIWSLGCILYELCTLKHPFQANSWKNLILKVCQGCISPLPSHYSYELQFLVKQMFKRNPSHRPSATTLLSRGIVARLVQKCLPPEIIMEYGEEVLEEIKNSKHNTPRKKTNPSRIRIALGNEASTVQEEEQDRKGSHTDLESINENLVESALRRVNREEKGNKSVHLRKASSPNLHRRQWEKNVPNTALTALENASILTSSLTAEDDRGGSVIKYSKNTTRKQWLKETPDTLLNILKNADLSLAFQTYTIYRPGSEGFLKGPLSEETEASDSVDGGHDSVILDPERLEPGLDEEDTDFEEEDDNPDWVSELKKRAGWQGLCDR

[2] = target: Microtubule-associated serine/threonine-protein kinase 1 (Homo sapiens) (UniProt Q9Y2H9); assay: Selectivity interaction (KinomeScan (DiscoverX)) EUB0000229b MAST1; conditions: at 10 µM
[3] = target: Serine/threonine-protein kinase 35 (Homo sapiens) (UniProt Q8TDR2); assay: Selectivity interaction (KinomeScan (DiscoverX)) EUB0000655a STK35; conditions: at 10 µM
Serine/threonine-protein kinase 35 (Homo sapiens), sequence (Q8TDR2 whole entry): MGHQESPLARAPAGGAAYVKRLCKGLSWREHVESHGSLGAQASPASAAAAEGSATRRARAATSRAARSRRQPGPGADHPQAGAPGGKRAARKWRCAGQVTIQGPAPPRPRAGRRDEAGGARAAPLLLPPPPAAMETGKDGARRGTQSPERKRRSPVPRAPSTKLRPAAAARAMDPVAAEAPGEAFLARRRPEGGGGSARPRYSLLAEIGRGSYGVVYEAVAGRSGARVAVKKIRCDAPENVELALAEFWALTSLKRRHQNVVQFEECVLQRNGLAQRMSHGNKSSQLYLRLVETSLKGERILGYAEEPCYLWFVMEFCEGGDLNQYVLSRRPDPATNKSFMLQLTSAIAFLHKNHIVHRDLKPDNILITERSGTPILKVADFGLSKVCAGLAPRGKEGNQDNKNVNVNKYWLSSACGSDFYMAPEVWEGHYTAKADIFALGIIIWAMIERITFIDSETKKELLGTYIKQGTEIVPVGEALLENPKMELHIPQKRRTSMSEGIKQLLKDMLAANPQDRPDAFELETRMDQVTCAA

[4] = target: Protein kinase C eta type (Homo sapiens) (UniProt P24723); assay: Selectivity interaction (KinomeScan (DiscoverX)) EUB0001079a PRKCH; conditions: at 1 µM
Protein kinase C eta type (Homo sapiens), sequence (P24723 whole entry): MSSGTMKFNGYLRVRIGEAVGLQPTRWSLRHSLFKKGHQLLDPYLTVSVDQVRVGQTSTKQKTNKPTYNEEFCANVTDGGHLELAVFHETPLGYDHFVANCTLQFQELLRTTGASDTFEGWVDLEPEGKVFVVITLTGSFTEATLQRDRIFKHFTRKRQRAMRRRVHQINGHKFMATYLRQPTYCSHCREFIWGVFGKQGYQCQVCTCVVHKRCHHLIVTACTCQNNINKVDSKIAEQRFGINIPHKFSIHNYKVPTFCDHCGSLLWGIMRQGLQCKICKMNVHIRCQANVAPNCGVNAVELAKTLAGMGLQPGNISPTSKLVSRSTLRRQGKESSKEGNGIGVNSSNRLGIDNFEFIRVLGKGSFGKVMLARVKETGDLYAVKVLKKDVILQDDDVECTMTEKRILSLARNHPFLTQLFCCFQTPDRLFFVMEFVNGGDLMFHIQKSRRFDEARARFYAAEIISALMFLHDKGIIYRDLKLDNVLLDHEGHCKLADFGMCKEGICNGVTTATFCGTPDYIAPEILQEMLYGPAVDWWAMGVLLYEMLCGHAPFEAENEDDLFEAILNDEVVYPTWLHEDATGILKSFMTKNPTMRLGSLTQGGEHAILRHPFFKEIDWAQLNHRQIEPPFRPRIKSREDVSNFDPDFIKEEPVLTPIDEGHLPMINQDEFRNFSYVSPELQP

[5] = target: Transcription intermediary factor 1-beta (Homo sapiens) (UniProt Q13263); assay: Selectivity interaction (Human bromodomain panel (DSF assay)) EUB0000233b TRIM28
Transcription intermediary factor 1-beta (Homo sapiens), sequence (Q13263 whole entry, canonical isoform): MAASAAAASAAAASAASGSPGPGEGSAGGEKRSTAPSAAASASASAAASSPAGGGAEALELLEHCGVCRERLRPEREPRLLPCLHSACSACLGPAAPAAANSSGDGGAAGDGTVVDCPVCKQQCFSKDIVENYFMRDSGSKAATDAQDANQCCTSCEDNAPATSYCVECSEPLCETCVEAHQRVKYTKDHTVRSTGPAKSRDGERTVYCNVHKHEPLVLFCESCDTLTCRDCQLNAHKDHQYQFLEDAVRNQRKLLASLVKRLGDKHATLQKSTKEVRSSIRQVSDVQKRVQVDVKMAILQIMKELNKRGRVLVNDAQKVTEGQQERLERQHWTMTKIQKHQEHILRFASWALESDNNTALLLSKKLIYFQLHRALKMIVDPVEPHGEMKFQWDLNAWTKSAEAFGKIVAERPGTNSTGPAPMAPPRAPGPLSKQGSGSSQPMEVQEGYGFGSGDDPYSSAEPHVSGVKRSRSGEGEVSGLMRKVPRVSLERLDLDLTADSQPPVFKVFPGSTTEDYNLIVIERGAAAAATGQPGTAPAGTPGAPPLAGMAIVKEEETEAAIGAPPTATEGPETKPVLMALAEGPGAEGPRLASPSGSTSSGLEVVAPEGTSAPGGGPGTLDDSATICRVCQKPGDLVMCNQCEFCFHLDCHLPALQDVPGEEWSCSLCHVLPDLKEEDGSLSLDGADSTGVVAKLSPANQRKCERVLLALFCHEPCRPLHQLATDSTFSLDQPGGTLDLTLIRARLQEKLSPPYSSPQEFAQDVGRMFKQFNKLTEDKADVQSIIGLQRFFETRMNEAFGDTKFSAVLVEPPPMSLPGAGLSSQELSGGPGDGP

[6] = target: Phosphatidylinositol 4,5-bisphosphate 3-kinase catalytic subunit beta isoform (Homo sapiens) (UniProt P42338); assay: Selectivity interaction (KinomeScan (DiscoverX)) EUB0000666a PIK3CB; conditions: at 10 µM
[7] = target: Interleukin-1 receptor-associated kinase 1 (Homo sapiens) (UniProt P51617); assay: Selectivity interaction (KinomeScan (DiscoverX)) EUB0000045b IRAK1
Interleukin-1 receptor-associated kinase 1 (Homo sapiens), sequence (P51617 whole entry, looked up): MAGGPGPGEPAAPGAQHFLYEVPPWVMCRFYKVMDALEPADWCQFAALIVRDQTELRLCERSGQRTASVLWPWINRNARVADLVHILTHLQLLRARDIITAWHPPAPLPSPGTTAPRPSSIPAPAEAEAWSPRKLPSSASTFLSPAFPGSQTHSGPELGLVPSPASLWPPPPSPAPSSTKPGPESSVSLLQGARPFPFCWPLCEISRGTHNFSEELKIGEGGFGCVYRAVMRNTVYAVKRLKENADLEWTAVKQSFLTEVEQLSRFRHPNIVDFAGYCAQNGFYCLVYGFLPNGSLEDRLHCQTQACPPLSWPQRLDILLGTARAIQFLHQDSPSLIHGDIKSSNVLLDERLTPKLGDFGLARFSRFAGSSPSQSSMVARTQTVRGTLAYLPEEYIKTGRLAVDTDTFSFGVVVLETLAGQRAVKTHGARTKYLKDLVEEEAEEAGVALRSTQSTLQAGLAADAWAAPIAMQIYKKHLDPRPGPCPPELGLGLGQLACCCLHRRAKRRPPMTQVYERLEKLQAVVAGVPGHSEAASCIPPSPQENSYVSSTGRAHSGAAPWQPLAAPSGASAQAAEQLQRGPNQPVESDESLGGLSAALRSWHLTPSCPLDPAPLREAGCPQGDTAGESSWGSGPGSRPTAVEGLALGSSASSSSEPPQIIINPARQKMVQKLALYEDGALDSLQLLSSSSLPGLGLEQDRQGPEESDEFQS

[8] = target: T2, Phosphatidylinositol 5-phosphate 4-kinase type-2 gamma (Homo sapiens) (UniProt Q8TBX8); assay: Selectivity interaction (KinomeScan (DiscoverX)) EUB0000045b PIP4K2C
T2 sequence (whole entry): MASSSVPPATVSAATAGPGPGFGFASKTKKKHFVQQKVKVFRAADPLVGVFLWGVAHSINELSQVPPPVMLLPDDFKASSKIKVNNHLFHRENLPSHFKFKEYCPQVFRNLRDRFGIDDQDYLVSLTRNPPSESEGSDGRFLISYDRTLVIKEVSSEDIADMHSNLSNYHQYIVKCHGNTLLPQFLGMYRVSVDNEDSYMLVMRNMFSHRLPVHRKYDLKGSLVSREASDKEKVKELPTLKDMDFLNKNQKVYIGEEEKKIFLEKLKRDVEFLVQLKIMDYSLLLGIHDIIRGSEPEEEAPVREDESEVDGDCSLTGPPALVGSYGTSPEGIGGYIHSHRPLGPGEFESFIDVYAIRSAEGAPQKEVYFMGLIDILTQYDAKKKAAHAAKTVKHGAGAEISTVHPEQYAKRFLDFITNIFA

[9] = target: Vascular endothelial growth factor receptor 2 (Homo sapiens, UniProt P35968); assay: Selectivity interaction (CEREP Wide Ligand Profile screen (panel of receptors, ion channels, and transporters)) EUB0001542aTs KDR
Vascular endothelial growth factor receptor 2, sequence (P35968 whole entry): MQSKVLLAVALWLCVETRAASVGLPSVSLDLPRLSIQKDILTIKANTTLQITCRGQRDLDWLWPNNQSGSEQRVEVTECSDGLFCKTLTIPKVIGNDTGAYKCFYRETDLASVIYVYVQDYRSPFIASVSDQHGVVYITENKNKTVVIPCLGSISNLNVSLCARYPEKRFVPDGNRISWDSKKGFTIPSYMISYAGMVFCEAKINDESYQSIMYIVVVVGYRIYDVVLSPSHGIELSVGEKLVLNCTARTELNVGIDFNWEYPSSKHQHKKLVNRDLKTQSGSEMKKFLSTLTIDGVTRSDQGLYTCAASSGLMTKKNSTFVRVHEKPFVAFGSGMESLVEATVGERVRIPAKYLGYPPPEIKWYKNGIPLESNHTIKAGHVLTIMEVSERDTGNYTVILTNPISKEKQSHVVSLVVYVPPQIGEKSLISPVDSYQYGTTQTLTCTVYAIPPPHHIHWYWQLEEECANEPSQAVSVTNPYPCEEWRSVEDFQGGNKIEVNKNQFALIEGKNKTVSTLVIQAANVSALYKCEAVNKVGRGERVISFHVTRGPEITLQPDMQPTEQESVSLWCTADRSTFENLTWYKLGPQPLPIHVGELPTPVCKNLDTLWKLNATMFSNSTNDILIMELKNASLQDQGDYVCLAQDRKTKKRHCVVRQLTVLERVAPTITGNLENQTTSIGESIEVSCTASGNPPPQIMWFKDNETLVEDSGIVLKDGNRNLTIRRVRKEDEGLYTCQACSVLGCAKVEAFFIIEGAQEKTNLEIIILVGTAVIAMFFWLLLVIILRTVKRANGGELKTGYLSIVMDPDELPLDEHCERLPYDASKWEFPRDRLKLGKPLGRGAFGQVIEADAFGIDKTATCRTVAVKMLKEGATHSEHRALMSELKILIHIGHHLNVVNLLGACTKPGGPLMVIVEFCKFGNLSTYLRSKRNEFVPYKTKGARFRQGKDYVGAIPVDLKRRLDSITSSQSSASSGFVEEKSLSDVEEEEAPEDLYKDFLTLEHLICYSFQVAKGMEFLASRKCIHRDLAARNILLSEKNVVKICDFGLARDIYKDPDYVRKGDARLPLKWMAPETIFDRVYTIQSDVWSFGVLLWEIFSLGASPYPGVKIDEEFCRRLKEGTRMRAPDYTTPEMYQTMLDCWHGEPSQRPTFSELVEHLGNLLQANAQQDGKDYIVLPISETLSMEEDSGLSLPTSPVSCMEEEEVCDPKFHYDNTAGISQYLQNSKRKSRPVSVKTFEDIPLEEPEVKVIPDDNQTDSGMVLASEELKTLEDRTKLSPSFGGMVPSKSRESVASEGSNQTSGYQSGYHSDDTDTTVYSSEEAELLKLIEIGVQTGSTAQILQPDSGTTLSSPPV

[10] = target: T3, Serine/threonine-protein kinase D3 (Homo sapiens) (UniProt O94806); assay: Selectivity interaction (KinomeScan (DiscoverX)) EUB0000618a PRKD3; conditions: at 10 µM
T3 sequence (whole entry): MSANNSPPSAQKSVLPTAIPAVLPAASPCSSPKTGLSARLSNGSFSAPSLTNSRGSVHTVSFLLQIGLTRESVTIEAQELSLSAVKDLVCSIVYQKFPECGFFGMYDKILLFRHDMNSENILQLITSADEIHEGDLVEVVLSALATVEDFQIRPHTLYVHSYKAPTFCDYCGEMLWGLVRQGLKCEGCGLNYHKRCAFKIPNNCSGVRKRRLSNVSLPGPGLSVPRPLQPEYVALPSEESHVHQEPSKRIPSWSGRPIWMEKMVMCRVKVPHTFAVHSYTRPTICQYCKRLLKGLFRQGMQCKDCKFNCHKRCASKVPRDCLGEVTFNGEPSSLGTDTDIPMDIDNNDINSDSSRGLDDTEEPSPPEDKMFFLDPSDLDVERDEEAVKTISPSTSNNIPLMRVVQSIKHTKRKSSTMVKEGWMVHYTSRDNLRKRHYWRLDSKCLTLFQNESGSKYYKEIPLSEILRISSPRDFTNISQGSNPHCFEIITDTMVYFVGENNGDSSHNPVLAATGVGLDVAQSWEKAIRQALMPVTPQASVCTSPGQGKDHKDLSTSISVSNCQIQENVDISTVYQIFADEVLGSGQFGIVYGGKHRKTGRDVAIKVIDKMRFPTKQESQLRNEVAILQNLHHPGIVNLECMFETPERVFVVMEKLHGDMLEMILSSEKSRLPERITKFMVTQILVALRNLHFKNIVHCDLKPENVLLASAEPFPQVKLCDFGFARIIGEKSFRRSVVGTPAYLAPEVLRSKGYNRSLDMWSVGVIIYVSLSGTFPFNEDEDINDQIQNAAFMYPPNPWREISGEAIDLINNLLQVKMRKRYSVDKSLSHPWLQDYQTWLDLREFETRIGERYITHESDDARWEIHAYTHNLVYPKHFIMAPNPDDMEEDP

[11] = target: Tyrosine-protein kinase Fgr (Homo sapiens) (UniProt P09769); assay: Selectivity interaction (KinomeScan (DiscoverX)) EUB0000618a FGR; conditions: at 10 µM
Tyrosine-protein kinase Fgr (Homo sapiens), sequence (P09769 2-529 limits assumed): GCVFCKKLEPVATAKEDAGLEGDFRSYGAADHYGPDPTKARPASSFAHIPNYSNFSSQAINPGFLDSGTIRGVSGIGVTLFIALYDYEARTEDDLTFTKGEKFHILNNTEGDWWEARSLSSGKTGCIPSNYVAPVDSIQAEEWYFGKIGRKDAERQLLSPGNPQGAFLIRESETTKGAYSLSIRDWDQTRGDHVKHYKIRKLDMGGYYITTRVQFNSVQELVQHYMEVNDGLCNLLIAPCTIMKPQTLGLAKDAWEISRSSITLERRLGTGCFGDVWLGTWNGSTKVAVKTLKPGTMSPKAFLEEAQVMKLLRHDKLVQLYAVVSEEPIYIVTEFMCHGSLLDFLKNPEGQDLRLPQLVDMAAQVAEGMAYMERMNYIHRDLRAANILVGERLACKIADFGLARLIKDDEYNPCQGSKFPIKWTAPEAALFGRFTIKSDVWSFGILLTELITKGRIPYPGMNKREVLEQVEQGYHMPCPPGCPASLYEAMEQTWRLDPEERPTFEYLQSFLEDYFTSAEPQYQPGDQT

COc1cc(N(C)c2ccnc3ccc(C(F)(F)F)cc23)cc(OC)c1OC
% binding [1]: 80%
% binding [2]: 85%

CN(C)CCOc1ccc(-c2nc(-c3ccncc3)c(-c3ccc4c(c3)CC/C4=N\O)[nH]2)cc1
% of control [3]: 100%

Nc1cnc(N2CCc3cc(S(=O)(=O)Nc4c(F)cc(Cl)cc4F)cc(N4CCCC4=O)c32)nc1 [TP-020n]
% of control [4]: 80%

CN(C)CCCOc1ccc(-c2cc(NCCCn3cccn3)nc(S(C)(=O)=O)n2)cc1
dTM [5]: < 2 K

O=C(NOC[C@H](O)CO)c1ccc(F)c(F)c1Nc1ccc(I)cc1F
% of control [6]: 100%

C=CC(=O)Nc1cc(-n2c(=O)ccc3cnc4ccc(-c5ccc(NS(C)(=O)=O)cc5)cc4c32)ccc1C
% of control ([7]; at 1 µM): 72%
% of control ([7]; at 10 µM): 60%
% of control ([8]; at 1 µM): 5.6%
% of control ([8]; at 10 µM): 3.9%

Cn1cc(Nc2nccc(N3CC4CCC(C3)N4C(=O)[C@@H]3CC3(F)F)n2)cn1
pIC50 [9]: 5.80

O[C@H]1CC[C@H](Nc2ncc3nc(Nc4c(F)cc(F)cc4F)n([C@H]4CCOC4)c3n2)CC1
% of control [10]: 84%
% of control [11]: 84%

— ChEMBL document CHEMBL5465560, “Selectivity Literature for EUbOPEN Chemogenomic Library” (2024)
